pIC50: −log10 of the molar value. Like-named read-outs stand apart in the source and are kept apart here.
Legend:
Test in all cases: KinaseProfiler kinase assay
Format in all cases: biochemical
[1] = target: Abl(h) (Homo sapiens, UniProt P00519); details: for IC50: read-out: IC50 (nM) Abl (h)
[2] = target: T1, Aurora-A(h) (Homo sapiens, UniProt O14965); details: for inhibition at 1 µM: read-out: % Inhibition @1 μM Auroro-A; for IC50: read-out: IC50 (nM) Auroro-A (h)
T1 sequence (O14965 1-403): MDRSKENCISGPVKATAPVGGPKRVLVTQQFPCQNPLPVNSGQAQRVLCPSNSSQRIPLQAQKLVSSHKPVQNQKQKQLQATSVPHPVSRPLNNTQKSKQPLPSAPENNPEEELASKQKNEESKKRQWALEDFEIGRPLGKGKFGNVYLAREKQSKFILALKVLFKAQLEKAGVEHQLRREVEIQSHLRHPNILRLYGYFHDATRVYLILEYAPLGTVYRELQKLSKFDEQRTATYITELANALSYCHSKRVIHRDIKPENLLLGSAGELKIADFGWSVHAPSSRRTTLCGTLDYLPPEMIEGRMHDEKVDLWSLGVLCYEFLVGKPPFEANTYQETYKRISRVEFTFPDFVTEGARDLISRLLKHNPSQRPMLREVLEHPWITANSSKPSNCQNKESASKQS
Summary of the method: (§1)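 Buffer 20 mM MOPS, 1 mM EDTA, 0.01% Brij-35, 5% glycerol, 0.1% β-mercaptoethanol, 1 mg/mL BSA for compound dilution; reaction at pH 7.0 with [γ-33P]ATP, 40 min RT; filtermat/scintillation read-out; 0%/100% set by no-kinase and phosphopeptide wells.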

[3] = target: FGFR1(h) (Homo sapiens, UniProt P11362); details: for IC50: read-out: IC50 (nM) FGFR1 (h)
Chain of FGFR1(h) (P11362 22-822): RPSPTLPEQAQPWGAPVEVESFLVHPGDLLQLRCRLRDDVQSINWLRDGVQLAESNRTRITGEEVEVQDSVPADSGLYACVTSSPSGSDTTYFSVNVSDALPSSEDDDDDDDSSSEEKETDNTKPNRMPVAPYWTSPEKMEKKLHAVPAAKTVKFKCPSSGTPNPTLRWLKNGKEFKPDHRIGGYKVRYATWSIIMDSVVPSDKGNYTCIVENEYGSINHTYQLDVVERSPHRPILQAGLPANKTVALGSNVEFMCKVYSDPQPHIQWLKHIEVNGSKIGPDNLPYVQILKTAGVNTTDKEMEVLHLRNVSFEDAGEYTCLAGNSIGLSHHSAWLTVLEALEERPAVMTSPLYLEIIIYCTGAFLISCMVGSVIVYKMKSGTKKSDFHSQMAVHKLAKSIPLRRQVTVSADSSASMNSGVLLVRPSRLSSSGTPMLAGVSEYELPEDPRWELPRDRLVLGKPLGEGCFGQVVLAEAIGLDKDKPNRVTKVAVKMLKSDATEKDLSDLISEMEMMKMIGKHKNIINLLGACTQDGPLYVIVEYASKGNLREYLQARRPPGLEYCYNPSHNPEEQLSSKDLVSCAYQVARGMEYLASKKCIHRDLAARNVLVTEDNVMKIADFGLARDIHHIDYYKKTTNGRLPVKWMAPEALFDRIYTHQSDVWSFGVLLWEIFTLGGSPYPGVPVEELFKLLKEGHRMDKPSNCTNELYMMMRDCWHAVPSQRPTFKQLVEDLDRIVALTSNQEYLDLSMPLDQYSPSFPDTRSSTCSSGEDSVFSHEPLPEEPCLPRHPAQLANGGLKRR
Summary of the method: as §1

[4] = target: T2, Flt3(h) (Homo sapiens, UniProt P36888); details: for IC50: read-out: IC50 (nM) Flt3 (h)
T2 sequence (P36888 27-993): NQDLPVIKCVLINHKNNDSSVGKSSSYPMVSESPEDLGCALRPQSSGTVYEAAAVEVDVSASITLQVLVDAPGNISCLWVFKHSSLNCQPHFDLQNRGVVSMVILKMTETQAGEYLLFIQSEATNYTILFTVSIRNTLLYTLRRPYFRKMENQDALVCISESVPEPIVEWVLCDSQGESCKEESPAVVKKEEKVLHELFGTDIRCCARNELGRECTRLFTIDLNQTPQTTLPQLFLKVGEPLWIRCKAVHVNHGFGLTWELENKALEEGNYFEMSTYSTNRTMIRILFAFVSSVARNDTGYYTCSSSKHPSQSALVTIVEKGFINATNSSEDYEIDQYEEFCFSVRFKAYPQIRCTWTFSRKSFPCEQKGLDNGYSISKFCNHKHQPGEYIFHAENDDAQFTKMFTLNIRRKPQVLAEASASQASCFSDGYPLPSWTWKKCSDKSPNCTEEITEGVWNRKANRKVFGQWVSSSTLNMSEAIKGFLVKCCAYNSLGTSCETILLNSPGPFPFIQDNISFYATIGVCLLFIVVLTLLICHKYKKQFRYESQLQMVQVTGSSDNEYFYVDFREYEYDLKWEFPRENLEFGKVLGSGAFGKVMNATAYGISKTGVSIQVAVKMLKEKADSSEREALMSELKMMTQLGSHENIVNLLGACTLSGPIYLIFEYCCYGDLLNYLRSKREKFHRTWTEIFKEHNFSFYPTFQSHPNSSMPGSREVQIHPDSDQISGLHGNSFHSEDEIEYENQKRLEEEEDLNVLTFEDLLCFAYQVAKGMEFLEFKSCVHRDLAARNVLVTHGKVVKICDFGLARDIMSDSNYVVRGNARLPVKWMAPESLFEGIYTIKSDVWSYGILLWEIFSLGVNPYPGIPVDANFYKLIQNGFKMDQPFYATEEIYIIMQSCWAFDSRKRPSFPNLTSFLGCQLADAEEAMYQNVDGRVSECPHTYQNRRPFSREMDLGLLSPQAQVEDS
Summary of the method: as §1

[5] = target: Ret(h) (Homo sapiens, UniProt P07949)
Chain of Ret(h) (P07949 29-1114): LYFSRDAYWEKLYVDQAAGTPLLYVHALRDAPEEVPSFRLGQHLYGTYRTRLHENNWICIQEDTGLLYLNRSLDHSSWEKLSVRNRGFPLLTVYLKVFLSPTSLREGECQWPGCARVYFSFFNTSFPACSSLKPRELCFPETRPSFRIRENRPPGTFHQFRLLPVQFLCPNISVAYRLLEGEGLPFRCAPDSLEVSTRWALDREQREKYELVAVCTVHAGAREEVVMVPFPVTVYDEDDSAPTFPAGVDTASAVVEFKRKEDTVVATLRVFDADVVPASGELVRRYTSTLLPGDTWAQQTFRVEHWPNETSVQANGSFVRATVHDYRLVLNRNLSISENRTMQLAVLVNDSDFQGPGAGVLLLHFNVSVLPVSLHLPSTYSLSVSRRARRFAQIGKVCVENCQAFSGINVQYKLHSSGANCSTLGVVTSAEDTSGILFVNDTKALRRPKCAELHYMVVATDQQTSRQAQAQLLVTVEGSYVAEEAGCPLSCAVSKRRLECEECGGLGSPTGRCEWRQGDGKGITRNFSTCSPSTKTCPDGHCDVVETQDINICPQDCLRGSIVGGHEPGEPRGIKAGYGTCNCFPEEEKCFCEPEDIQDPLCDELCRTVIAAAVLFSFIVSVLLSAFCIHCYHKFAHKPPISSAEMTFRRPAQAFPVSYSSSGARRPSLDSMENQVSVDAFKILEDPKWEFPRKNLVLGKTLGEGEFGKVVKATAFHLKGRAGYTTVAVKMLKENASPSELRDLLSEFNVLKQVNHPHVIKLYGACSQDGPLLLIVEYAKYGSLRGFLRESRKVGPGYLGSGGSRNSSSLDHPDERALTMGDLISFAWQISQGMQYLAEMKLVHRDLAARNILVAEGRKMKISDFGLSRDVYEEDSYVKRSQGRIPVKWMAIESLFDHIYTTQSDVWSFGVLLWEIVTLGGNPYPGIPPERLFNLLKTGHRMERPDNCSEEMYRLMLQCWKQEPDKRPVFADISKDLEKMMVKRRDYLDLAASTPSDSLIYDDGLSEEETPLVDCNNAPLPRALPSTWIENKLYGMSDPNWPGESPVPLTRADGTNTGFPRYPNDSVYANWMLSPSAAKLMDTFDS
Summary of the method: as §1

[6] = target: cSRC(h) (Homo sapiens, UniProt P12931); details: for IC50: read-out: IC50 (nM) cSrc (h)
Chain of cSRC(h) (P12931 whole entry): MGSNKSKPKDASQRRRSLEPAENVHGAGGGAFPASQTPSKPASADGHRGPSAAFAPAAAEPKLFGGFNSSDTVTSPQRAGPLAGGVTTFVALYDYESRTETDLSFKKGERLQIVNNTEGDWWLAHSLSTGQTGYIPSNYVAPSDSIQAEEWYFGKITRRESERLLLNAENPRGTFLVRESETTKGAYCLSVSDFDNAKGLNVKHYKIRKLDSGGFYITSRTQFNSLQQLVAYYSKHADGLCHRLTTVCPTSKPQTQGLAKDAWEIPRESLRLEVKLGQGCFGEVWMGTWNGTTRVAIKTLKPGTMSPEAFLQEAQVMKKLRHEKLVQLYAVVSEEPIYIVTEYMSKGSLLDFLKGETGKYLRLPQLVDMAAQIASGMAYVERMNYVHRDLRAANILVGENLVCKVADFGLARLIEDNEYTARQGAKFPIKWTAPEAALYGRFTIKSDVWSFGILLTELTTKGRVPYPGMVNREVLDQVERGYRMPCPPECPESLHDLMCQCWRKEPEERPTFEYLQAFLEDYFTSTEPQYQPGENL
Summary of the method: as §1

[7] = target: KDR(h) (Homo sapiens, UniProt P35968); details: for IC50: read-out: IC50 (nM) KDR (h)
Chain of KDR(h) (P35968 20-1356): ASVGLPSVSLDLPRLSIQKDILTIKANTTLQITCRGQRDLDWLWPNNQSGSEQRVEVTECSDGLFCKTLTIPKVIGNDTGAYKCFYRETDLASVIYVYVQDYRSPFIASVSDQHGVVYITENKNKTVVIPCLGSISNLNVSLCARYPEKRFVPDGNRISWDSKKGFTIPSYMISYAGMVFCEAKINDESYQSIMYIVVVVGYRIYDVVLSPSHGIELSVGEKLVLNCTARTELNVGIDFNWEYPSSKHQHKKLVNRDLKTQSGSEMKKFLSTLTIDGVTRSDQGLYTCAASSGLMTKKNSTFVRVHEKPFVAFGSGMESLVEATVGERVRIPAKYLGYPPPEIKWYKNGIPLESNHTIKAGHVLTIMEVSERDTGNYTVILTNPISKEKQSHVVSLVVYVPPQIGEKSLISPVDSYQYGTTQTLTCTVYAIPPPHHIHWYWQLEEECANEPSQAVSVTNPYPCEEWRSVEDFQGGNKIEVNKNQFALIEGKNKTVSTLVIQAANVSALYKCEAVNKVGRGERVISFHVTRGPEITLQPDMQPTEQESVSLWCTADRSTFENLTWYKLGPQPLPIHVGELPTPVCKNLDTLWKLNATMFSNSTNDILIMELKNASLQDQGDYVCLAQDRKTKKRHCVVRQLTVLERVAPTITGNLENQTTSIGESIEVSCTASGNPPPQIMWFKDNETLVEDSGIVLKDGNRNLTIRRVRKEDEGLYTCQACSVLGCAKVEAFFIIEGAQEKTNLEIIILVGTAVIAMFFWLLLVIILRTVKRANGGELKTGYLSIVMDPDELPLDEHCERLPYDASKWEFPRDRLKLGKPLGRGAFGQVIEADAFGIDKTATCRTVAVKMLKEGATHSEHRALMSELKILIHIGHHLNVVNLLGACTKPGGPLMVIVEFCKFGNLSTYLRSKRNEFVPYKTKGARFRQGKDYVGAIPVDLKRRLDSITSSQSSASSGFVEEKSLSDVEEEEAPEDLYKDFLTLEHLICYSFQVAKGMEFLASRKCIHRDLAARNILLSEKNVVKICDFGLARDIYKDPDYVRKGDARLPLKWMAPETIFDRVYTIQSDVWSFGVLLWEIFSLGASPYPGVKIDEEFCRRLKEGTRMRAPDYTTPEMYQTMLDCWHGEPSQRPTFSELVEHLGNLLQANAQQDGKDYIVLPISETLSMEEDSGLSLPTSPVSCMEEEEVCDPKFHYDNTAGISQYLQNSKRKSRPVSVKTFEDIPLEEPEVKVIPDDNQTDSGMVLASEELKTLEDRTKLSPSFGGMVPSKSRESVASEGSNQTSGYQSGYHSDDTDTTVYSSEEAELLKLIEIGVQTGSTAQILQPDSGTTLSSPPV

Chain of Abl(h) (P00519 whole entry): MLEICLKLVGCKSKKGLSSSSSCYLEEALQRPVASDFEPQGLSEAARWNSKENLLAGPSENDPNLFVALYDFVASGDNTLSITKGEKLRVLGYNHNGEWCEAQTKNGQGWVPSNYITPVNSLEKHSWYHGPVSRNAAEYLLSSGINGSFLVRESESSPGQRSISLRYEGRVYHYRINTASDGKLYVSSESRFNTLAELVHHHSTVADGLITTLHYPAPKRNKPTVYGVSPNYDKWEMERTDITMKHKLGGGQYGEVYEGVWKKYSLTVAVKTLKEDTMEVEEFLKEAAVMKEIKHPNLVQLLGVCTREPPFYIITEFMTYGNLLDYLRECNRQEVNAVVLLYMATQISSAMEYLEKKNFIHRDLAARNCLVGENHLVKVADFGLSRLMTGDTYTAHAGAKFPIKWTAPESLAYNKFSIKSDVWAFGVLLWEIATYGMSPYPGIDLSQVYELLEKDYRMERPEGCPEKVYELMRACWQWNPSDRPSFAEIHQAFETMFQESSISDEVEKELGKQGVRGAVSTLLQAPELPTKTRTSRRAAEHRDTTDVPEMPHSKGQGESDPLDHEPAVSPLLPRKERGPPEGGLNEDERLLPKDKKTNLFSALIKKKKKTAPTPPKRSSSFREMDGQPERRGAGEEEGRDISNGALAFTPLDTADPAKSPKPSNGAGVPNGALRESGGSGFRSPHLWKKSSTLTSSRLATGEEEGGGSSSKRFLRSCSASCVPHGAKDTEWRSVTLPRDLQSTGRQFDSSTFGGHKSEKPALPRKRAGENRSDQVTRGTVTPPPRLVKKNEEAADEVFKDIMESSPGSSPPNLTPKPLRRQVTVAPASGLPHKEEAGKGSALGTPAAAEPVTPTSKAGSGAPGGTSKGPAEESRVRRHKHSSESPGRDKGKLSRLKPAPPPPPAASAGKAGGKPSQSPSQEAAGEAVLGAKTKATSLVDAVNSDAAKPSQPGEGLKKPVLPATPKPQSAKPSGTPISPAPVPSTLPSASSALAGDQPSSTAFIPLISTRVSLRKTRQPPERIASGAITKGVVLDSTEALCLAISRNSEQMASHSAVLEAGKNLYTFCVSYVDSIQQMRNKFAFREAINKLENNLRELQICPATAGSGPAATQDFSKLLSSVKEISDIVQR

| SMILES | inhibition at 0.1 µM [1] [%] | inhibition at 1 µM [1] [%] | IC50 [1] [nM] | inhibition at 0.1 µM [2] [%] | inhibition at 1 µM [2] [%] | IC50 [2] [nM] | inhibition at 0.1 µM [3] [%] | IC50 [3] [nM] | inhibition at 0.1 µM [4] [%] | inhibition at 1 µM [4] [%] | IC50 [4] [nM] | inhibition at 0.1 µM [5] [%] | inhibition at 1 µM [5] [%] | inhibition at 0.1 µM [6] [%] | inhibition at 1 µM [6] [%] | IC50 [6] [nM] | inhibition at 0.1 µM [7] [%] | inhibition at 1 µM [7] [%] | IC50 [7] [nM] | also measured |
| --- | --- | --- | --- | --- | --- | --- | --- | --- | --- | --- | --- | --- | --- | --- | --- | --- | --- | --- | --- | --- |
| Cc1cc2c(F)c(Oc3nc(Nc4cc(C5CC5)[nH]n4)cc(N4CCN(C)CC4)n3)ccc2[nH]1 [Compound 10] | 110 | 112 | 0.5 | 98 | 99 | 2 | 100 | 1 | 101 | 100 | 11 | 102 | 101 | 103 | 100 | 3 | 93 | 95 |  |  |
| Cc1cc2c(F)c(Oc3nc(Nc4cc(C5CC5)[nH]n4)cc(N4CCNCC4)n3)ccc2[nH]1 [Compound 11, N-(5-cyclopropyl-1H-pyrazol-3-yl)-2-((4-fluoro-2-methyl-1H-indol-5-yl)oxy)-6-(piperazin-1-yl)pyrimidin-4-amine] | 108 | 111 | 0.5 | 99 | 100 | < 0.1 | 100 | 0.5 | 98 | 100 | 12 | 100 | 101 | 98 | 101 | 3 | 92 | 96 | 12 |  |
| C/C=C/c1cc(Nc2cc(N3CCN(C)CC3)nc(Oc3ccc4[nH]c(C)cc4c3F)n2)n[nH]1 [Compound 53] |  | 109 |  |  | 97 |  |  |  |  | 99 |  |  | 98 |  | 98 |  |  | 95 |  | pIC50 ([1]; Abl, read-out: IC50): 9.22; pIC50 ([2]; Aurora-A, read-out: IC50): 8.40; pIC50 ([3]; FGFR1, read-out: IC50): 9.30; pIC50 ([4]; Flt3, read-out: IC50): 7.89; pIC50 ([5]; Ret, read-out: IC50): 8.70; pIC50 ([6]; cSrc, read-out: IC50): 8.70; pIC50 ([7]; VEGFR2, read-out: IC50): 7.80 |
| C/C=C/c1cc(Nc2cc(N3CCNCC3)nc(Oc3ccc4[nH]c(C)cc4c3F)n2)n[nH]1 [Compound 68] |  | 107 | 0.3 |  | 99 | 10 |  | 0.6 |  | 100 | 4 |  | 99 |  | 96 | 2 |  | 92 | 12 |  |
| Cc1cc2c(F)c(Oc3nc(Nc4cc(C5CC5)[nH]n4)cc(N4CCNCC4)n3)cc(F)c2[nH]1 [Compound 82] |  | 106 | 0.2 |  | 100 | 4 |  | 0.6 |  | 100 | 6 |  | 100 |  | 100 | 2 |  | 95 | 11 | IC50 ([5]; read-out: IC50 (nM) Ret (h)): 1 nM |
| C/C=C/c1cc(Nc2cc(N3CCN(CCO)CC3)nc(Oc3cc(F)c4[nH]c(C)cc4c3F)n2)n[nH]1 [Compound 88] |  | 113 | 1 |  | 100 |  |  | 0.2 |  | 100 | 8 |  | 99 |  | 100 | 4 |  | 96 | 44 |  |

From patent publication US10245261B2, “Substituted indol-5-ol derivatives and their therapeutic applications” (NantBioScience, Inc., priority 2013, dated 2019)
